Read-outs that look alike come from different tables or passages of the source.

The target in one series is KOR (Homo sapiens (Human), UniProt P41145). In words: Competition binding assay at KOR ([3H]DPN, CHO cell membranes). On the procedure:
(§1) Chinese hamster ovary (CHO) cells expressing MOR, KOR and DOR were cultured for use in this assay. The culture media used for MOR CHO cells contained 500 mL DMEM/F12 media, 10% FBS, 1% penicillin/streptomycin, and 2.75 mL G418. The DOR and KOR CHO cells were cultured in the same media except that 5% FBS was used instead of 10%. The cells are allowed to grow until they are 80-95% confluent after which they are split. The cells are continuously cultured and split until there were sufficient cells for the studies.
(§2) Once the cells reached confluence, cells were harvested, centrifuged at 1000×g for 10 minutes, and suspended in membrane buffer (50 mM Tris, 3 mM MgCl2, and 1 mM EGTA, pH 7.4). The cells were then homogenized, centrifuged at 50000×g for 10 minutes, and re-homogenized in membrane buffer. A Bradford assay was conducted to determine membrane protein concentrations, and membrane protein preps (3 μg/aliquot) were stored at −80° C.
(§3) The competition binding assay was conducted to determine the affinity and selectivity of the synthesized compounds to MOR over KOR and DOR. The Kd and Bmax values for [^3H]NLX at MOR and [^3H]DPN at KOR had been determined previously. […] [^3H]NLX was used to label MOR whilst [^3H]DPN was used to label both DOR and KOR. The potency of the new compounds in displacing the specific binding of the radioligand was determined by linear regression analysis of Hill plots. […] The IC50 values were determined and converted to Ki values using the Cheng—Prusoff equation (Rosenblum, A. et al. Exp Clin Psychopharmacol. 2008, 16 (5), 405-416).

Series [1] has as its target T1, DOR (Homo sapiens (Human), UniProt P41143). In words: Competition binding assay at DOR ([3H]DPN, CHO cell membranes). As for the experimental part:
as §1, §2, §3

The target in series [2] is MOR (Mus musculus, UniProt P42866). In kind it is biochemical. To be noted: relative to 3 μM DAMGO at MOR. On the procedure: The [^35S]GTPγS functional assay was used to determine whether the synthesized compounds are agonists. The agonist's activity of the compounds was measured relative to 3 μM DAMGO at MOR. In this assay, upon receptor activation due to agonist binding, [^35S]GTPγS binds to the Gα subunit. Thus, [^35S]GTPγS replaces endogenous GTP and since the γ-thiophosphate bond is resistant to hydrolysis by GTPase, [^35S]GTPγS labelled Gα subunits accumulate and can be quantified by measuring the amount of incorporated [^35S].
The Bradford assay was then conducted to determine the concentration of the membrane protein using BSA as the standard. Suitable dilutions of membrane protein, [^35S]GTPγS), cold GTPγS, DAMGO and GDP were made in TME. The desired amount of the protein per tube was 10 μg. All the test-tubes were vortexed and incubated in the shaking water bath at 30° C. for 90 minutes, after which bound radioligand was filtered and rinsed three times with cold Tris buffer. The filtered bound radioligand was then transferred into scintillation tubes with 4 mL of scintillation fluid and radioligand was quantified. However, counting was delayed for 9 hrs to allow the radioactivity to enter the solution. Percent DAMGO stimulation was defined as (net stimulated binding of test compound/net stimulated binding of DAMGO)×100%. The normalized data were subjected to nonlinear regression analysis to determine EC50 and Emax values using Prism 6.0 software (GraphPad Software, San Diego, Calif.). The assay was performed in triplicate and repeated at least three times.

The test system of series [3] is Swiss Webster mice. The experiment in a line: Warm-water tail immersion assay, antinociceptive (agonist) effect. It counts as in vivo. Particulars: 10 mg/kg s.c., tail flick 20 min after injection, 56 °C. On the procedure: (§4) FIG. 1A-D. Warm-water tail immersion assay in mice (n=5) at 56±0.1° C. All tested compounds were administered subcutaneously (s.c.). […] Compounds (10 mg/kg) were injected at Time 0. Twenty minutes after injection, tail flick was assessed with hot water. […] Tested compounds (10 mg/kg) were injected at Time 0. Five minutes later, morphine (10 mg/kg) was administered. Twenty minutes after morphine injection, tail flick was tested using hot water.
(§5) For the in vivo studies, male Swiss Webster mice were used for both the warm-water immersion and opioid withdrawal assays. The mice weighed 23-35 g and were housed five to a cage in animal care quarters maintained at 22° C. on a 12 hour light-dark cycle with food and water available ad libitum. The mice were transferred to the test room and the tests were then conducted 18 hours later. Protocols and procedures were approved by the Institutional Animal Care and Use Committee at Virginia Commonwealth University Medical Center and complied with the recommendations of the International Association for the Study of Pain.
Each indole analogue of naltrexamine was tested for its ability to produce antinociception and/or to antagonize the antinociceptive effects of morphine in mice using the warm-water tail immersion assay described by Coderre and Rollman. The a water bath temperature was maintained at 56±0.1° C. The baseline latency (control) was determined before injecting the compounds into the mice. […] To test for agonism, the tail immersion was conducted 20 min (time that morphine effect starts to peak) after injecting the indole analogues of 6α/β-naltrexamine. To prevent tissue damage, a 10 s maximum cut off time was imposed. Antinociceptive response was calculated as the percentage maximum possible effect (% MPE), where % MPE=[(test−control)/(10−control)]×100. […] The tail immersion test was conducted 20 min after giving morphine. % MPE was calculated for each mouse using at least five mice per drug. AD50 values were calculated using the least-squares linear regression analysis followed by calculation of 95% confidence interval by Bliss method. […]

Series [4] has as its target T1, DOR. Particulars: read-out: Ki (nM) ± SEM δ; values obtained from previous experiments; cited from earlier work.
Series [5] deals with Swiss Webster mice. The experiment in a line: Warm-water tail immersion assay, blockage of the antinociceptive effect of morphine. To be noted: for Blockage of morphine-mediated antinociception: 10 mg/kg s.c. 5 min before morphine 10 mg/kg, tested 20 min after morphine; for AD50 (95% CL), opioid antagonist effect: dose-dependent study against morphine, s.c. As for the experimental part:
as §4, §5
Each indole analogue of naltrexamine was tested for its ability to produce antinociception and/or to antagonize the antinociceptive effects of morphine in mice using the warm-water tail immersion assay described by Coderre and Rollman. The a water bath temperature was maintained at 56±0.1° C. The baseline latency (control) was determined before injecting the compounds into the mice. […] To test for agonism, the tail immersion was conducted 20 min (time that morphine effect starts to peak) after injecting the indole analogues of 6α/β-naltrexamine. To prevent tissue damage, a 10 s maximum cut off time was imposed. Antinociceptive response was calculated as the percentage maximum possible effect (% MPE), where % MPE=[(test−control)/(10−control)]×100. In the antagonism study, the 6α/β-naltrexamine derivatives were given 5 min before morphine. The tail immersion test was conducted 20 min after giving morphine. % MPE was calculated for each mouse using at least five mice per drug. AD50 values were calculated using the least-squares linear regression analysis followed by calculation of 95% confidence interval by Bliss method. A higher % MPE indicates a stronger antinociception effect by the ligand.

The test system of a further series is morphine-pelleted mice. The experiment in a line: Opioid withdrawal assay in chronic morphine-exposed (pelleted) mice. As for the experimental part:
as §5
A 75 mg morphine pellet was implanted in to the base of the neck of the mice and the mice were then given time to recover in their home cages before the test was conducted. The mice were then allowed for 30 min habituation to an open-topped, square, clear Plexiglas observation chamber (26×26×26 cm^3) with lines partitioning the bottom into quadrants before they were given antagonist. All drugs and test compounds were administered subcutaneously (s.c.). […] Withdrawal commenced within 3 min after antagonist administration. Escape jumps, paw tremors and wet dog shakes were quantified by counting their occurrences over 20 min for each mouse using five mice per drug. The data is given as the mean±SEM. One-way ANOVA followed by the post hoc Dunnett test were performed to assess significance using the Prism 6.0 software.

The target in series [6] is MOR (Homo sapiens (Human), UniProt P35372). Particulars: background statement; cited from earlier work.
The mark [7] stands for this setting: [3H]DPN, KOR CHO membranes, read-out: Ki (nM) ± SEM κ.
Setting [8] is: [3H]DPN, DOR CHO membranes, read-out: Ki (nM) ± SEM δ.
Where [9] appears, read: 50 mg/kg s.c., morphine-pelleted mice.

T1 sequence (P41143 whole entry, looked up): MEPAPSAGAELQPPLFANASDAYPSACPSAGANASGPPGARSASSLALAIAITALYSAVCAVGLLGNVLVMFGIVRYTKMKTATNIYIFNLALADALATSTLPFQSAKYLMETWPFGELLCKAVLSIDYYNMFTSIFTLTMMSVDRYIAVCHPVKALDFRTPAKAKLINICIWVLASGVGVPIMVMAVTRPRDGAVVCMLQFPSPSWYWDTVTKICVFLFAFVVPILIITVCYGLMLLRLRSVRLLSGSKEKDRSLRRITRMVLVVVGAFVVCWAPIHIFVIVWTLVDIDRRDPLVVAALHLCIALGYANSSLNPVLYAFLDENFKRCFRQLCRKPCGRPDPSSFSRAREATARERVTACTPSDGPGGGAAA
Sequence of MOR (Mus musculus, UniProt P42866) (P42866 whole entry, looked up): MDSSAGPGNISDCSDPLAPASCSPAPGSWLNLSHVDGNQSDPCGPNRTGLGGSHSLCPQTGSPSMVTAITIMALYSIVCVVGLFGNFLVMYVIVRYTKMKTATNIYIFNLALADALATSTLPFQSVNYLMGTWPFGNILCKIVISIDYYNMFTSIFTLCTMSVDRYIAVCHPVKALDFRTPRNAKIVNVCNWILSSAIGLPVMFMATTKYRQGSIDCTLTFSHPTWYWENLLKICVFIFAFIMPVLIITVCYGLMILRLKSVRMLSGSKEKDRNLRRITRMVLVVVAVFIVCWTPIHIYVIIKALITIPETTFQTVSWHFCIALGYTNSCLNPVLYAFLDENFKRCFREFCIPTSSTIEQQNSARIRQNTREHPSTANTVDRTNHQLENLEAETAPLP
Sequence of MOR (Homo sapiens (Human), UniProt P35372) (P35372 whole entry): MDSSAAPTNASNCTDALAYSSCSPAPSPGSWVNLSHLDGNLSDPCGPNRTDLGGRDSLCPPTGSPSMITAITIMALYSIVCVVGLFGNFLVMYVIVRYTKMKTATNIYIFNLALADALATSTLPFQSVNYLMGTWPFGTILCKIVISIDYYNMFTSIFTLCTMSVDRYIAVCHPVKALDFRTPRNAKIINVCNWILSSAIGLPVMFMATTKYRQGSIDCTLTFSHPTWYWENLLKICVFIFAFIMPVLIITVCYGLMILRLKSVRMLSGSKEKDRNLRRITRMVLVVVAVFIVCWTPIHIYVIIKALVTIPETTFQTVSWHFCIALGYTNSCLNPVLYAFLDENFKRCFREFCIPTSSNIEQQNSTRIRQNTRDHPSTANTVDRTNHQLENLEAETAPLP

For orientation: Ki means the dissociation constant of the complex between target and ligand, obtained from inhibition or displacement. Turning to `Cl.O=C(Cc1c[nH]c2ccccc12)N[C@@H]1CC[C@@]2(O)[C@H]3Cc4ccc(O)c5c4[C@@]2(CCN3CC2CC2)[C@H]1O5` [Compound 16, 17-Cyclopropylmethyl-3,14β-dihydroxy-4,5α-epoxy-6β-[2-(indol-3-yl)acetamido)morphinan], the Ki on KOR (setting [7]) turned out to be 0.947 ± 0.114 nM; on DOR [1] (setting [8]), 37 ± 1.21 nM. Besides, the “Emax(% DAMGO) ± SEM” value at MOR [2] was 50.17 ± 7.75 % DAMGO. Further, the “Antinociceptive effect (agonism) in warm-water immersion assay” value (from here on “Antinociceptive effect (agonism)”) in the series on Swiss Webster mice [3] is given as “partial opioid agonists”.
With `Cl.O=C(N[C@H]1CC[C@@]2(O)[C@H]3Cc4ccc(O)c5c4[C@@]2(CCN3CC2CC2)[C@H]1O5)c1cc2ccccc2cn1` [NAQ, 17-Cyclopropylmethyl-3,14β-Dihydroxy-4,5α-Epoxy-6α-(Isoquinoline-3-Carboxamido)morphinan], on DOR [4], the Ki was 162 ± 15 nM.
For the compound `Cl.O=C(N[C@@H]1CC[C@@]2(O)[C@H]3Cc4ccc(O)c5c4[C@@]2(CCN3CC2CC2)[C@H]1O5)c1cc2ccccc2[nH]1` [Compound 10, 17-Cyclopropylmethyl-3,14β-dihydroxy-4,5α-epoxy-6β-(indole-2-carboxamido)morphinan], the Ki was 0.178 ± 0.002 nM on KOR and 1.54 ± 0.473 nM at DOR [1]. For the same compound, in the series on Swiss Webster mice [3], the “Antinociceptive effect (agonism)” value was “opioid agonist”.
With `Cl.O=C(CCCc1c[nH]c2ccccc12)N[C@@H]1CC[C@@]2(O)[C@H]3Cc4ccc(O)c5c4[C@@]2(CCN3CC2CC2)[C@H]1O5` [Compound 18, 17-Cyclopropylmethyl-3,14β-dihydroxy-4,5α-epoxy-6β-[4-(indol-3-yl)butanamido)morphinan], the Ki is 0.175 ± 0.037 nM on KOR (setting [7]) and 25.3 ± 4.34 nM at DOR [1] (setting [8]). On MOR [2], the “Emax(% DAMGO) ± SEM” value stood at 36.29 ± 4.11 % DAMGO. For the same compound, the “Blockage of morphine-mediated antinociception” value (“Blockage” for short) in the series with Swiss Webster mice [5] is reported as “effectively blocked morphine-mediated antinociception”. The “AD50 (95% CL), opioid antagonist effect” value in the series with Swiss Webster mice [5] is 9.64 (3.17-29.29) mg/kg.
`Cl.O=C(N[C@H]1CC[C@@]2(O)[C@H]3Cc4ccc(O)c5c4[C@@]2(CCN3CC2CC2)[C@H]1O5)c1cccc2cc[nH]c12` [Compound 6, 17-Cyclopropylmethyl-3,14β-dihydroxy-4,5α-epoxy-6α-(indole-7-carboxamido)morphinan]: the inhibitory constant (Ki) on KOR (setting [7]) turned out to be 1.69 ± 0.35 nM. The Ki on DOR [1] (setting [8]) was determined as 10.9 ± 2.94 nM. At MOR [2], the “Emax(% DAMGO) ± SEM” value is given as 20.95 ± 4.43 % DAMGO. In addition, in the series on Swiss Webster mice [5], the “Blockage” value is given as “effectively blocked morphine-mediated antinociception” and the “AD50 (95% CL), opioid antagonist effect” value is listed as 2.39 (0.46-12.47) mg/kg. For the same compound, the “Escape jumps compared with naltrexone 1 mg/kg” value in the series with morphine-pelleted mice (1 mg/kg s.c., morphine-pelleted mice) is given as “significantly less escape jumps than naltrexone”. Also, the Diarrhea entry with morphine-pelleted mice (1 mg/kg, morphine pelleted mice (not in placebo pelleted mice)) is “produced diarrhea”. Besides, in the series with morphine-pelleted mice (setting [9]), the “Paw tremors compared with naltrexone 1 mg/kg” value was “significantly less paw tremors than naltrexone” and the “Wet-dog shakes compared with naltrexone 1 mg/kg” value is recorded as “significantly less wet-dog shakes than naltrexone”. For the same compound, the “Escape jumps compared with naltrexone 1 mg/kg” value in the series on morphine-pelleted mice (50 mg/kg s.c., morphine-pelleted mice, not significantly different) is given as “more escape jumps”. Besides, in the series on morphine-pelleted mice (50 mg/kg s.c., placebo-pelleted mice), the “Withdrawal symptoms in placebo-pelleted mice” value is “did not induce any significant withdrawal symptoms”.
Take `Cl.O=C(N[C@@H]1CC[C@@]2(O)[C@H]3Cc4ccc(O)c5c4[C@@]2(CCN3CC2CC2)[C@H]1O5)c1cccc2cc[nH]c12` [Compound 15, 17-Cyclopropylmethyl-3,14β-dihydroxy-4,5α-epoxy-6β-(indole-7-carboxamido)morphinan]: the values for the Ki at KOR and on DOR [1] were 0.52 ± 0.094 nM and 30.4 ± 9.49 nM, respectively. Also, the “Emax(% DAMGO) ± SEM” value on MOR [2] was 32.0 ± 4.6 % DAMGO. For the same compound, in the series on Swiss Webster mice [3], the “Antinociceptive effect (agonism)” value is “partial opioid agonists”. In the series with Swiss Webster mice [5], the “Blockage” value is reported as “effectively blocked morphine-mediated antinociception”.
As to `COc1cccc2c1[C@]13CCN(CC4CC4)[C@H](C2)[C@]1(OC)CCC(=O)C3` [Cyprodime], on MOR [6], the “Selectivity DOR/MOR (MOR over DOR)” value is on record as “≈ 39 fold” and the “Selectivity KOR/MOR” value is reported as “≈ 10”.

(Values after US10988481B2, “Potent and selective mu opioid receptor modulators” (VIRGINIA COMMONWEALTH UNIVERSITY, priority 2016, dated 2021).)
